The text below walks through data of patent publication US9266834B2, “1, 4-disubstituted 3-cyano-pyridone derivatives and their use as positive allosteric modulators of MGLUR2-receptors” (JANSSEN PHARMACEUTICALS, INC., priority 2006, dated 2016).

For one experiment, the target named is T1, human mGluR2 receptor (Homo sapiens, UniProt Q14416).
T1 construct: expressed in transfected cells; host or cells: CHO cells (membrane preparation)
T1 sequence (Q14416 19-872): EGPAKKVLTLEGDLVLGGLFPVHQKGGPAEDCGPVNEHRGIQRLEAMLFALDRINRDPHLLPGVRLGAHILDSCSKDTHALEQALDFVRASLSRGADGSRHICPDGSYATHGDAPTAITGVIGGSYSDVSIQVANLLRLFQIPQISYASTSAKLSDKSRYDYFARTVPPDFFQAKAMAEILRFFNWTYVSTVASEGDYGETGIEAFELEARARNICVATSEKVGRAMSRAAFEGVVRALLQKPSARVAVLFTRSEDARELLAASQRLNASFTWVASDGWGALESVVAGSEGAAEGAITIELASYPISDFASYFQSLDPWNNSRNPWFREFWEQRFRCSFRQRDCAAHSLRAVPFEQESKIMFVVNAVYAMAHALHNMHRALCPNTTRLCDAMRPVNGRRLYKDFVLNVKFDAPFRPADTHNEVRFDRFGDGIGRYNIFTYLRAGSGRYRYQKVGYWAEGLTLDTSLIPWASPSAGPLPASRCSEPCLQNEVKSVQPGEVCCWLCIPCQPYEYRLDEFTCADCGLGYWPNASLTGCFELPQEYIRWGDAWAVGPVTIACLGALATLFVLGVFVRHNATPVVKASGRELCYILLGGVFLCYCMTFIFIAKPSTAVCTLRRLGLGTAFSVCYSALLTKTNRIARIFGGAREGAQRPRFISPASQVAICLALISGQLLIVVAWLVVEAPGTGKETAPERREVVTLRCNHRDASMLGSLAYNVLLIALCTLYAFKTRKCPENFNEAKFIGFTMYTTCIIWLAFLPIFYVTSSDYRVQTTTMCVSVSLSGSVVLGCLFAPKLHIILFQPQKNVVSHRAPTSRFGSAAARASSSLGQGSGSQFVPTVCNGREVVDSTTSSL
Put plainly: [35S]GTPγS binding assay (GTPγS-PAM): positive allosteric modulation in presence of glutamate at EC25, membranes from transfected CHO cells. The format is biochemical. To be noted: in presence of mGluR2 agonist glutamate at predetermined EC25 concentration, averages of duplicate values of 11-concentration response curves. The text has this:
The compounds provided in the present invention are positive allosteric modulators of mGluR2. These compounds appear to potentiate glutamate responses by binding to an allosteric site other than the glutamate binding site. The response of mGluR2 to a concentration of glutamate is increased when compounds of Formula (I) are present. Compounds of Formula (I) are expected to have their effect substantially at mGluR2 by virtue of their ability to enhance the function of the receptor. The behaviour of positive allosteric modulators tested at mGluR2 using the [^35S]GTPγS binding assay method described below and which is suitable for the identification of such compounds, and more particularly the compounds according to Formula (I), are shown in Table 4.
[^35S]GTPγS Binding Assay
The [^35S]GTPγS binding is a functional membrane-based assay used to study G-protein coupled receptor (GPCR) function whereby incorporation of a non-hydrolysable form of GTP, [^35S]GTPγS (guanosine 5′-triphosphate, labelled with […] ^35S), is measured. The G-protein o subunit catalyzes the exchange of guanosine 5′-diphosphate (GDP) by guanosine triphosphate (GTP) and on activation of the GPCR by an agonist, [^35S]GTPγS, becomes incorporated and cannot be cleaved to continue the exchange cycle (Harper (1998) Current Protocols in Pharmacology 2.6.1-10, John Wiley & Sons, Inc.). […] Here we describe the use of the [^35S]GTPγS binding assay using membranes from cells transfected with the human mGluR2 receptor and adapted from Schaffhauser et al ((2003) Molecular Pharmacology 4:798-810) for the detection of the positive allosteric modulation (PAM) properties of the compounds of this invention.
CHO-cells were cultured to pre-confluence and stimulated with 5 mM butyrate for 24 hours, prior to washing in PBS, and then collection by scraping in homogenisation buffer (50 mM Tris-HCl buffer, pH 7.4, 4° C.). Cell lysates were homogenized briefly (15 s) using an ultra-turrax homogenizer. The homogenate was centrifuged at 23 500×g for 10 minutes and the supernatant discarded. The pellet was resuspended in 5 mM Tris-HCl, pH 7.4 and centrifuged again (30 000×g, 20 min, 4° C.). The final pellet was resuspended in 50 mM HEPES, pH 7.4 and stored at −80° C. in appropriate aliquots before use. Protein concentration was determined by the Bradford method (Bio-Rad, USA) with bovine serum albumin as standard.
Measurement of mGluR2 positive allosteric modulators in membranes containing human mGluR2 was performed using frozen membranes that were thawed and briefly homogenised prior to pre-incubation in 96-well microplates (15 μg/assay well, 30 minutes, 30° C.) in assay buffer (50 mM HEPES pH 7.4, 100 mM NaCl, 3 mM MgCl2, 50 μM GDP, 10 μg/ml saponin,) with increasing concentrations of positive allosteric modulator (from 0.3 nM to 50 μM) and either a minimal pre-determined concentration of glutamate (PAM assay), or no added glutamate. For the PAM assay, membranes were pre-incubated with glutamate at EC25 concentration, i.e. a concentration that gives 25% of the maximal response glutamate, and is in accordance to published data (Pin et al. (1999) Eur. J. Pharmacol. 375:277-294). After addition of [^35S]GTPγS (0.1 nM, f.c.) to achieve a total reaction volume of 200 μl, microplates were shaken briefly and further incubated to allow [^35S]GTPγS incorporation on activation (30 minutes, 30° C.). The reaction was stopped by rapid vacuum filtration over glass-fibre filter plates (Unifilter 96-well GF/B filter plates, Perkin-Elmer, Downers Grove, USA) microplate using a 96-well plate cell harvester (Filtermate, Perkin-Elmer, USA), and then by washing three times with 300 μl of ice-cold wash buffer (Na2PO4.2H2O 10 mM, NaH2PO4.H2O 10 mM, pH=7.4). Filters were then air-dried, and 40 μl of liquid scintillation cocktail (Microscint-O) was added to each well, and membrane-bound [^35S]GTPγS was measured in a 96-well scintillation plate reader (Top-Count, Perkin-Elmer, USA). […]
In general terms: GTPγS is a poorly hydrolysed GTP analogue; its binding reports G protein activation.
Turning to `CCCCn1ccc(N2CCN(c3nc(C)cc(C)n3)CC2)c(C#N)c1=O` [2-005], the “GTPgS - hR2 PAM pEC50” value is listed as 6.2.

Still in this experiment, the particulars now being: in presence of mGluR2 agonist glutamate at predetermined EC25 concentration, averages of duplicate values of 11-concentration response curves, read-out: GTPgS - hR2 PAM pEC50 (converted).
Turning to `CC(C)CCn1ccc(N2CCC(Cc3ccccc3)CC2)c(C#N)c1=O` [4-015], the EC50 was 100 nM.

On to `CC(C)CCn1ccc(N2CCN(Cc3ccc(F)c(F)c3)CC2)c(C#N)c1=O` [2-015], for which the EC50 is 1260 nM.

As for `C[C@@H]1CN(c2ccn(CC3CC3)c(=O)c2C#N)C[C@H](C)N1c1ncccn1` [2-041], the EC50 was 3160 nM.

Take `N#Cc1c(N2CCN(Cc3ccccc3)CC2)ccn(Cc2ccc(OC(F)(F)F)cc2)c1=O` [2-042]: the EC50 was 631 nM.

Take `COc1ccc(-c2ccn(Cc3cccc(Cl)c3)c(=O)c2C#N)cc1` [1-026]: the EC50 was 501 nM.

As for `CC(C)CCn1ccc(-c2ccc(N3CCCCC3)cc2)c(C#N)c1=O` [1-219], the EC50 is 200 nM.

For `CC(C)CCn1ccc(N2CCC(OCc3cccc(C(F)(F)F)c3)CC2)c(C#N)c1=O` [4-020], the EC50 is 126 nM.

On to `CCCCn1ccc(-c2ccc(Oc3cccc(C(F)(F)F)n3)cc2)c(C#N)c1=O` [1-068], for which the EC50 is 251 nM.

In the case of `COc1cc(F)c(-c2ccn(CCC(C)C)c(=O)c2C#N)c(F)c1` [1-116], the EC50 was 631 nM.

Regarding `N#Cc1c(-c2ccc(Oc3ccnc(N4CCCC4)c3)cc2)ccn(CC2CC2)c1=O` [1-005], the EC50 is 398 nM.

Consider `CC(=O)N1CCc2cc(-c3ccn(CCC(C)C)c(=O)c3C#N)ccc21` [5-015], for which the EC50 is 1580 nM.

On to `CC(C)CCn1ccc(OCc2ccc(OCc3ccccc3)cc2)c(C#N)c1=O` [1-289], for which the EC50 is 79.4 nM.

For `CC(C)CCn1ccc(N2CCC(N(C)Cc3cccc(C(F)(F)F)c3)CC2)c(C#N)c1=O` [4-028], the EC50 was 100 nM.

For `CC(C)CCn1ccc(N2CCN(CCOc3cccc(C(F)(F)F)c3)CC2)c(C#N)c1=O` [2-020], the EC50 was 794 nM.

On to `CC(C)CCn1ccc(-c2ccc(OC3CCCC3)cc2)c(C#N)c1=O` [1-135], for which the EC50 was 1000 nM.

On to `CC(C)CCn1ccc(N2CCC(NCc3cccc(C(F)(F)F)c3)CC2)c(C#N)c1=O` [4-024], for which the EC50 is 6310 nM.

Regarding `CC(C)CCn1ccc(-c2ccc(COc3ccncc3)cc2)c(C#N)c1=O` [1-160], the EC50 was 631 nM.

In the case of `CCCCn1ccc(-c2ccc(Oc3ccnc(N4CCOCC4)c3)cc2)c(C#N)c1=O` [1-073], the EC50 is 398 nM.

As to `N#Cc1c(-c2ccc(OCC3CC3)cc2F)ccn(CC2CC2)c1=O` [1-003], the EC50 was 631 nM.

For `CC(C)CCn1ccc(N2CCC(c3ccccc3)(N3CCOCC3)CC2)c(C#N)c1=O` [4-044], the EC50 was 2510 nM.

In the case of `CN(C)c1ccc(-c2ccn(CC3CCCCC3)c(=O)c2C#N)cc1` [1-010], the EC50 was 100 nM.

For the compound `CC(C)CCn1ccc(-c2ccc(OC3CCCC3)c(Cl)c2)c(C#N)c1=O` [1-124], the EC50 is 50.1 nM.

Take `CCCCn1ccc(-c2cccc(Oc3ccncc3)c2)c(C#N)c1=O` [1-062]: the EC50 was 6310 nM.

Take `CC(C)CCn1ccc(-c2ccco2)c(C#N)c1=O` [1-081]: the EC50 was 6310 nM.

`COc1ccc(C=Cc2ccn(CCC(C)C)c(=O)c2C#N)cc1` [1-266]: the EC50 is 316 nM.

For the compound `CC(C)CCn1ccc(-c2ccc(Nc3ccccc3)cc2)c(C#N)c1=O` [1-193], the EC50 was 5010 nM.

With `CC(C)CCn1ccc(-c2ccc(OCCF)c(Cl)c2)c(C#N)c1=O` [1-121], the EC50 is 501 nM.

For the compound `CC(C)CCn1ccc(-c2ccc(NCc3ccccc3)cc2)c(C#N)c1=O` [1-194], the EC50 was 63.1 nM.

Turning to `COc1cc(-c2ccn(CCC(C)C)c(=O)c2C#N)ccc1CNC(C)=O` [1-184], the EC50 was 3980 nM.

On to `CC(C)CCn1ccc(-c2ccc(N3CCN(c4ccncc4)CC3)cc2)c(C#N)c1=O` [1-234], for which the EC50 was 1260 nM.

Regarding `CCCCn1ccc(N2CCC(COc3cccnc3)CC2)c(C#N)c1=O` [4-007], the EC50 was 1580 nM.

With `CCCCn1ccc(-c2ccc(Oc3cnccn3)cc2)c(C#N)c1=O` [1-076], the EC50 was 3980 nM.

Consider `CCCCn1ccc(N2CCC(COc3ccccn3)CC2)c(C#N)c1=O` [4-006], for which the EC50 was 501 nM.

Turning to `CC(C)CCn1ccc(Nc2ccccc2)c(C#N)c1=O` [1-298], the EC50 was 3980 nM.

`CC(C)CCn1ccc(N2CCN(c3ccccn3)CC2)c(C#N)c1=O` [2-024]: the EC50 is 2000 nM.

For `N#Cc1c(OC2CCN(Cc3cccc(C(F)(F)F)c3)CC2)ccn(CC2CC2)c1=O` [3-012], the EC50 is 1260 nM.

Turning to `CC(C)CCn1ccc(-c2ccc(Br)c(Br)c2)c(C#N)c1=O` [1-092], the EC50 was 63.1 nM.

With `CC(C)CCn1ccc(-c2ccc3[nH]ncc3c2)c(C#N)c1=O` [5-021], the EC50 was 1580 nM.

With `CC(C)CCn1ccc(OCc2ccc(SC(F)(F)F)cc2)c(C#N)c1=O` [1-287], the EC50 was 63.1 nM.

Regarding `CC(C)CCn1ccc(-c2ccc(Oc3ccncc3)cc2F)c(C#N)c1=O` [1-161], the EC50 is 631 nM.

On to `CC(C)CCn1ccc(N2CCCC(c3ccccc3)C2)c(C#N)c1=O` (stereo not shown) [4-013], for which the EC50 is 2000 nM.

As for `CCCCn1ccc(Oc2ccc(Br)cc2)c(C#N)c1=O` [1-273], the EC50 was 631 nM.

As for `CCCCn1ccc(N2CCC(c3ccccn3)CC2)c(C#N)c1=O` [4-001], the EC50 was 2000 nM.

As for `CC(=O)NCCNc1ccc(-c2ccn(CCC(C)C)c(=O)c2C#N)cc1` [1-182], the EC50 is 3160 nM.

As for `CC(C)CCn1ccc(CCc2ccc(N(C)C)cc2)c(C#N)c1=O` [1-263], the EC50 is 1000 nM.

On to `Cc1cc(OCC2CCN(c3ccn(Cc4ccc(OC(F)(F)F)cc4)c(=O)c3C#N)CC2)ccn1` [4-052], for which the EC50 was 631 nM.

As for `CC(C)CCn1ccc(N2CCCC(Nc3ccccc3)C2)c(C#N)c1=O` (stereo not shown) [4-023], the EC50 is 5010 nM.

As to `CC(=O)Nc1ccc(-c2ccn(CCC(C)C)c(=O)c2C#N)cc1F` [1-201], the EC50 was 3980 nM.

For the compound `N#Cc1c(N2CCC(c3ccccc3)CC2)ccn(CC2CCCCO2)c1=O` (stereo not shown) [4-048], the EC50 is 2000 nM.

Turning to `CC(C)CCn1ccc(N2CCN(c3ccc(C#N)cn3)CC2)c(C#N)c1=O` [2-027], the EC50 is 6310 nM.

With `C[C@@H]1COC[C@H](C)N1Cc1ccc(-c2ccn(Cc3ccc(OC(F)(F)F)cc3)c(=O)c2C#N)cc1` [1-034], the EC50 was 1260 nM.

On to `CC(=O)CCOc1ccc(-c2ccn(CCC(C)C)c(=O)c2C#N)cc1` [1-126], for which the EC50 was 631 nM.

Regarding `N#Cc1c(OCc2ccccc2)ccn(Cc2ccc(OC(F)(F)F)cc2)c1=O` [1-272], the EC50 was 126 nM.

With `Cc1ccc(OC2CCN(c3ccn(CCC(C)C)c(=O)c3C#N)CC2)cc1` [4-017], the EC50 is 126 nM.

With `CC(C)CCn1ccc(-c2ccc(Oc3ccccc3)cc2)c(C#N)c1=O` [1-140], the EC50 was 39.8 nM.

With `CC(C)CCn1ccc(-c2ccc(OCCN3CCOCC3)cc2)c(C#N)c1=O` [1-139], the EC50 is 3980 nM.

`CC(C)CCn1ccc(N2CCC(N(C)CCc3cccc(C(F)(F)F)c3)CC2)c(C#N)c1=O` [4-032]: the EC50 was 398 nM.

Regarding `CC(C)CCn1ccc(-c2ccc3[nH]ccc3c2)c(C#N)c1=O` [5-016], the EC50 is 251 nM.

On to `CC(C)CCn1ccc(-c2ccc(Nc3ccncc3)cc2)c(C#N)c1=O` [1-208], for which the EC50 is 1260 nM.

Take `COC1CCN(c2ccc(-c3ccn(CCC(C)C)c(=O)c3C#N)cc2)CC1` [1-221]: the EC50 is 398 nM.
